{"source": "paper PMC10876487", "about": "(Synthetic and Systems Biotechnology, 2024)", "target": "T1, ALDH-40 (Bacillus subtilis, UniProt P94358)", "T1 sequence (P94358 1-485)": "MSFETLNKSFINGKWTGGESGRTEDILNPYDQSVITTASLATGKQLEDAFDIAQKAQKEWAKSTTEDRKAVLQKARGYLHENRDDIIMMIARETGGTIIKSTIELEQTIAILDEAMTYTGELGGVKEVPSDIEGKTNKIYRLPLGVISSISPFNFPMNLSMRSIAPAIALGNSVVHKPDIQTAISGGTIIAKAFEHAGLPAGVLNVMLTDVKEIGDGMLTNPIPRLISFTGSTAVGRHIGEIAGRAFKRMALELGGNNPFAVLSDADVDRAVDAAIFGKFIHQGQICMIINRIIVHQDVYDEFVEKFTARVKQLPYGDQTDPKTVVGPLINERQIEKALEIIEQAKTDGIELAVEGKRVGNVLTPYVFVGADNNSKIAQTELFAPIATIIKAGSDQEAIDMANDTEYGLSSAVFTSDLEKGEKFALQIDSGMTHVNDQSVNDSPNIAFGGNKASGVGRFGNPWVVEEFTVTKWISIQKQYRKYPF", "test": "HPLC, Michaelis-Menten fit", "assay_type": "biochemical", "settings": "0.5 μM enzyme, NAD+ 2 mM, 50 mM Tris-HCl pH 8.0, 30 °C"}
{"substance": "cinnamaldehyde [2a]", "values": [{"measurement": "Km", "value": "10 ± 2.7", "unit": "mM"}]}
